Reference: EP0555116B1, “Compositions based on antiseptics and their applications” (HUTCHINSON, priority 1992, dated 1993)

What was measured:
[1] = test system: S. aureus ATCC 6538; test: Disinfection time test (Essai 2, Tables D-F), reaction at 22°, subcultures 72 h at 37°C; type: cell-based, Staphylococcus aureus
Procedure: (§1) Un autre essai a été réalisé à partir des solutions suivantes : • 100 ml d'une solution à 0,1 % de digluconate de chlorhexidine (pH 6) et • 100 ml d'une solution à 0,1 % de Bardac 22®.
(§2) Les tests ont été réalisés conformément au protocole décrit dans le Chapitre I/2.1 et 2.2 de Richtlinien für die Prüfung und Bewertung chemischer Desinfektionsverfahren der DGHM, Stand 1.1., 1981).
(§3) Les tests dont les résultats sont illustrés aux Tableaux D, E et F ont été réalisés à une température de réaction de 22° avec une incubation des sous-cultures 72 heures à 37°C avec comme substances inactivantes : Tween® 80 3 % + saponine 3 % + cystéine 0,1 % + histidine 0,1 %; ces Tableaux illustrent respectivement l'activité bactéricide et fongicide d'une solution aqueuse à 0,1 % de digluconate de chlorhexidine, d'une solution aqueuse à 0,1 % de Bardac 22® et d'un mélange à part égale des deux composés et montrent l'action des antiseptiques précités, en fonction du temps de contact, et font apparaître la même synergie d'action de l'association que ci-dessus, dans la mesure où l'association des deux composés permet de diminuer significativement leur concentration, pour l'obtention d'un même effet. TABLEAU D

[2] = test system: cellules fibroblastiques humaines; test: Cytotoxicity control of the products on human fibroblast cultures (10 tubes, 3 days); type: cell-based; conditions: solution à 0,05 %; pur et dilutions 10^-1 à 10^-3, 0,1 ml dans 1 ml
Excerpt: On réalise des contrôles de cytotoxicité des produits pour les cultures cellulaires utilisées dans les tests, c'est-à-dire les cellules fibroblastiques humaines.
Les cellules sont cultivées en milieu de Dulbecco enrichi en sérum de veau foetal à 10 %; au moment de leur utilisation, les cellules sont lavées et on utilise le même milieu de culture, mais dépourvu de sérum de veau.
Pour chaque produit testé ou chaque composition, on a utilisé 10 tubes de culture cellulaire et après inoculation du produit, les tubes ont été surveillés pendant trois jours.
Chaque produit a été successivement utilisé pur, et aux dilutions 10^-1, 10^-2, 10^-3 et ajouté aux tubes de culture contenant 1 ml de milieu nutritif, sous le volume de 0,1 ml.

[3] = test system: E. coli ATCC 11229; test: Disinfection time test (Essai 2, Tables D-F), reaction at 22°, subcultures 72 h at 37°C; type: cell-based, Escherichia coli
Procedure: as §1, §2, §3

[H]/N=C(\N/C(=N/[H])NCCCCCCNC(=N)NC(=N)Nc1ccc(Cl)cc1)Nc1ccc(Cl)cc1 [Chlorhexidine, digluconate de chlorhexidine, reference compound]
-: croissance ([1]; Conc. 10 % (vol/vol), 60 min) | croissance ([1]; Conc. 25 % (vol/vol), 30 min) | croissance ([1]; Conc. 25 % (vol/vol), 60 min) | croissance ([3]; Conc. 5 % (vol/vol), 30 min) | croissance ([3]; Conc. 5 % (vol/vol), 60 min) | croissance ([3]; Conc. 10 % (vol/vol), 15 min) | croissance ([3]; Conc. 10 % (vol/vol), 30 min) | croissance ([3]; Conc. 10 % (vol/vol), 60 min) | croissance ([3]; Conc. 25 % (vol/vol), 15 min) | croissance ([3]; Conc. 25 % (vol/vol), 30 min) | croissance ([3]; Conc. 25 % (vol/vol), 60 min)
aucune toxicité: toxicité pour les cultures cellulaires [2]
+: croissance ([1]; Conc. 0,1 % (vol/vol), 1 min) | croissance ([1]; Conc. 0,1 % (vol/vol), 3 min) | croissance ([1]; Conc. 0,1 % (vol/vol), 5 min) | croissance ([1]; Conc. 0,1 % (vol/vol), 15 min) | croissance ([1]; Conc. 0,1 % (vol/vol), 30 min) | croissance ([1]; Conc. 0,1 % (vol/vol), 60 min) | croissance ([1]; Conc. 0,05 % (vol/vol), 1 min) | croissance ([1]; Conc. 0,5 % (vol/vol), 1 min) | croissance ([1]; Conc. 0,05 % (vol/vol), 3 min) | croissance ([1]; Conc. 0,5 % (vol/vol), 3 min) | croissance ([1]; Conc. 0,05 % (vol/vol), 5 min) | croissance ([1]; Conc. 0,5 % (vol/vol), 5 min) | croissance ([1]; Conc. 0,05 % (vol/vol), 15 min) | croissance ([1]; Conc. 0,5 % (vol/vol), 15 min) | croissance ([1]; Conc. 0,05 % (vol/vol), 30 min) | croissance ([1]; Conc. 0,5 % (vol/vol), 30 min) | croissance ([1]; Conc. 0,05 % (vol/vol), 60 min) | croissance ([1]; Conc. 0,5 % (vol/vol), 60 min) | croissance ([1]; Conc. 1 % (vol/vol), 1 min) | croissance ([1]; Conc. 1 % (vol/vol), 3 min) | croissance ([1]; Conc. 1 % (vol/vol), 5 min) | croissance ([1]; Conc. 1 % (vol/vol), 15 min) | croissance ([1]; Conc. 1 % (vol/vol), 30 min) | croissance ([1]; Conc. 1 % (vol/vol), 60 min) | croissance ([1]; Conc. 5 % (vol/vol), 1 min) | croissance ([1]; Conc. 5 % (vol/vol), 3 min) | croissance ([1]; Conc. 5 % (vol/vol), 5 min) | croissance ([1]; Conc. 5 % (vol/vol), 15 min) | croissance ([1]; Conc. 5 % (vol/vol), 30 min) | croissance ([1]; Conc. 5 % (vol/vol), 60 min) | croissance ([1]; Conc. 10 % (vol/vol), 1 min) | croissance ([1]; Conc. 10 % (vol/vol), 3 min) | croissance ([1]; Conc. 10 % (vol/vol), 5 min) | croissance ([1]; Conc. 10 % (vol/vol), 15 min) | croissance ([1]; Conc. 10 % (vol/vol), 30 min) | croissance ([1]; Conc. 25 % (vol/vol), 1 min) | croissance ([1]; Conc. 25 % (vol/vol), 3 min) | croissance ([1]; Conc. 25 % (vol/vol), 5 min) | croissance ([1]; Conc. 25 % (vol/vol), 15 min) | croissance ([3]; Conc. 0,1 % (vol/vol), 1 min) | croissance ([3]; Conc. 0,1 % (vol/vol), 3 min) | croissance ([3]; Conc. 0,1 % (vol/vol), 5 min) | croissance ([3]; Conc. 0,1 % (vol/vol), 15 min) | croissance ([3]; Conc. 0,1 % (vol/vol), 30 min) | croissance ([3]; Conc. 0,1 % (vol/vol), 60 min) | croissance ([3]; Conc. 0,05 % (vol/vol), 1 min) | croissance ([3]; Conc. 0,5 % (vol/vol), 1 min) | croissance ([3]; Conc. 0,05 % (vol/vol), 3 min) | croissance ([3]; Conc. 0,5 % (vol/vol), 3 min) | croissance ([3]; Conc. 0,05 % (vol/vol), 5 min) | croissance ([3]; Conc. 0,5 % (vol/vol), 5 min) | croissance ([3]; Conc. 0,05 % (vol/vol), 15 min) | croissance ([3]; Conc. 0,5 % (vol/vol), 15 min) | croissance ([3]; Conc. 0,05 % (vol/vol), 30 min) | croissance ([3]; Conc. 0,5 % (vol/vol), 30 min) | croissance ([3]; Conc. 0,05 % (vol/vol), 60 min) | croissance ([3]; Conc. 0,5 % (vol/vol), 60 min) | croissance ([3]; Conc. 1 % (vol/vol), 1 min) | croissance ([3]; Conc. 1 % (vol/vol), 3 min) | croissance ([3]; Conc. 1 % (vol/vol), 5 min) | croissance ([3]; Conc. 1 % (vol/vol), 15 min) | croissance ([3]; Conc. 1 % (vol/vol), 30 min) | croissance ([3]; Conc. 1 % (vol/vol), 60 min) | croissance ([3]; Conc. 5 % (vol/vol), 1 min) | croissance ([3]; Conc. 5 % (vol/vol), 3 min) | croissance ([3]; Conc. 5 % (vol/vol), 5 min) | croissance ([3]; Conc. 5 % (vol/vol), 15 min) | croissance ([3]; Conc. 10 % (vol/vol), 1 min) | croissance ([3]; Conc. 10 % (vol/vol), 3 min) | croissance ([3]; Conc. 10 % (vol/vol), 5 min) | croissance ([3]; Conc. 25 % (vol/vol), 1 min) | croissance ([3]; Conc. 25 % (vol/vol), 3 min) | croissance ([3]; Conc. 25 % (vol/vol), 5 min)
